This is an account of results in EP2349259B1, “INHIBITORS OF MITOSIS FOR […] IN THERAPY” (Array Biopharma, Inc., priority 2008, dated 2010).

A short description of data set [1]: Determination of MTD of Compound 4 in mice (HT-29 xenograft study). The settings on record: mouse, in vivo; female nude mice with subcutaneous HT-29 xenografts; compound dissolved in normal saline. How it is done:
Female nude mice were implanted subcutaneously with 5 x 10^6 HT-29 cells in 100 µL PBS. Ten days Inter, tumors were measured and mice randomized into groups of three with average tumor volume in each group of approximately 240 mm^3. Compound 4 was dissolved in normal saline immediately before dosing. It was determined that 20 mg/kg was the MTD for Compound 4. Dose volume was 10 mL/kg. Dosing was vehicle alone on day 1; and Compound 4 at 20 mg/kg on day 1; and 20 mg/kg on days 1 and 3. At various time points after dosing (24, 48, 72, 96, 120 and 144 hours), mice were euthanized by CO2 inhalation, and the tumors were harvested and immediately placed in formalin. The vehicle control group samples were collected 24 and 72 hours after dosing. The day I group samples were collected 24, 48, 72 and 96 hours after that dose. The day 1 and day 3 group samples were collected 72, 96, 120 and 144 hours after the first dose. Paraffin blocks of tumor tissue were prepared by standard procedures. […] Spindle structures were manually counted in three 40X areas of each sample, using a fluorescent microscope. Apoptosis was quantitated by manual counting of TUNEL positive cells, also in three 40X areas of each sample (TUNEL staining using the In Situ Cell Death Detection Kit, AP from Roche).

Data set [2] can be described thus: Determination of MTD in a Phase 1 Study. In kind it is in vivo, human. The settings on record: IV on Days 1 and 2 every two weeks. The source says: A total of 13 patients with various solid tumors and with a median age of 66 years (range 40-79 years old) were enrolled in a human phase 1 clinical trial (see "Phase 1 Safety and Phamacokinetic Study of ARRY-520 in Solid Tumors." http://clinicaltrials.gov/ct2/show/NCT00462358). The solid tumors treated were breast cancer (2), colorectal cancer (2), non-small cell lung cancer (2), pancreatic cancer (2), bladder cancer, salivary gland cancer (adenoid cystic), esophageal cancer, mesothelioma cancer, and a mixed small cell lung cancer / non-small cell lung cancer. Compound 4 was provided for administration as a lyophilized powder contained in a Type 1 clear glass vial for IV use. The dose levels administered were 1.25 and 1.6 mg/m^2/day of Compound 4 on Days 1 and 2 every two weeks.

Data set [3] is described as follows: Tolerability in tumor growth inhibition study on different dosing schedules (HT-29). It counts as in vivo, nude mice. As to conditions: 10 mg/kg IP on days 1, 2, 3, 4 and 5. How it is done:
Female nude mice were implanted subcutaneously with 5 x 10^6 HT-29 cells in 100 µL PBS. Eleven to fourteen days later, tumors were measured and mice randomized into groups of seven with average tumor volume in each group of approximately 230 mm^3. Compound 4 was dissolved in normal saline immediately prior to dosing, and administered IP at a volume of 10 mL/kg. Dosing was vehicle alone on day 1 and day 2; and Compound 4 at 20 mg/kg on day 1; 20 mg/kg on days I and 2; 20 mg/kg on days 1 and 3; 5 mg/kg on days 1, 2 and 3; 10 mg/kg on days 1, 2 and 3; 10 mg/kg on days 1, 2, 3, 4 and 5; 10 mg/kg on days 1 and 2; and 10 mg/kg on days 1 and 3. Animal weights and tumor volumes were measured (using electronic calipers) twice a week. Tumor volume was calculated using the formula: volume = (width^2 x length)/2. Dosing at 10 mg/kg on days 1, 2, 3, 4 and 5 was not tolerated (greater than 20% weight loss and/or death in some of the mice).

In the case of `CON(C)C(=O)N1N=C(c2cc(F)ccc2F)S[C@@]1(CCCN)c1ccccc1` [Compound 4, (S)-2-(3-aminopropyl)-5-(2,5-difluorophenyl)-N-methoxy-N-methyl-2-phenyl-1,3,4-thiadiazole-3(2H)-carboxamide], the MTD in data set [1] came to 20 mg/kg; in data set [2] (13 patients with various solid tumors, dose levels 1.25 and 1.6 mg/m^2/day) it was 1.25 mg/m^2/day. In addition, the DLTs entry in data set [2] (patients with solid tumors) was “Grade 3 hyponatremia, anorexia, AST increase and febrile neutropenia”. The “MTD, cumulative dose per cycle” value in data set [2] (patients with solid tumors) turned out to be 2.5 mg/m^2. The “tolerability of dosing schedule” value in data set [3] (female nude mice with HT-29 xenografts) was “not tolerated”. In data set [3] (weight loss and/or death in some of the mice), the weight loss entry is given as “greater than 20%”.
